Experimental data published in patent US20060183773A1, “Uses of methylphenidate derivatives” (priority 2005, published 2006).

Legend:
Assay type in all cases: cell-based, human
RAP2 = assay: Custom AntibodyArray, TRiPS cells: RAP2; conditions: 15 μg/ml, 30 minutes
Experimental: (§1) Day 18 TRiPS cells, 1×10^6, were incubated for 30 minutes at 37° C., either with nothing added (“Nil”), with 1 μl CD3/CD28 Dynabeads (Dynal, Oslo, Norway) (“CD3/CD28 beads”) per 100,000 cells, or with CD3/CD28 beads and 15 μg/ml of the compound of formula II (Cpd II). After the incubation, the cells were lysed in Cell-Lytic Mammalian Cell Extraction Reagent (Sigma). After centrifugation to pellet cellular debris, the supernatants (cell extracts) were obtained.
(§2) The cell extracts (supernatants) were then analyzed using a Custom AntibodyArray™ manufactured by Hypromatrix Inc., Worcester, Mass., following the manufacturer's instructions. The Custom AntibodyArray™ is a nylon membrane blotted with antibodies to the proteins listed below. Briefly, the cell extracts were incubated with duplicate Custom AntibodyArray™'s for 2 hours at room temperature with slow shaking, followed by three washes with Tris buffer (150 mM NaCl, 25 mM Tris, 0.05% Tween-20, pH 7.5). HRP-labeled antibodies specific for phosphorylated-tyrosine, phosphorylated-serine and phosphorylated-threonine in Tris buffer were added, and the arrays incubated for 2 hours. After three more washes with Tris buffer, a peroxidase-reactive luminescent substrate was added. The arrays were visualized by exposure to X-ray film. Densitometry of the X-ray films was measured by scanning and computer analysis.

IL-8 = IL-8 production by CD3/CD28-stimulated TRiPS T-cell line, ELISA; conditions: 15 μg/ml; CD3/CD28 Dynabeads, 24 hours
MEKK1 = assay: Custom AntibodyArray, TRiPS cells: MEKK1; conditions: 15 μg/ml, 30 minutes
Experimental: as §1, §2

RAS = RAS activation pulldown assay in TRiPS cells; conditions: CD3/CD28 beads + 15 μg/ml
Experimental: (§3) Day 10 TRiPS cells, 1×10^6, were incubated with 15 μg/ml of the compound of formula II (Cpd II) for 1 hour at 37° C. Then, the cells were incubated with CD3/CD28 beads (1 μl per 100,000 cells) (obtained from Dynal) for 10 minutes at 37° C. The cells were then lysed with a mild buffer (supplied with Pierce EZ-Detect activation kit described below) to produce cell extracts. Protein concentrations of the resulting extracts were determined by bicinchoninic acid (BCA) assay (Pierce) and placed on ice for immediate use.
(§4) Pulldown assays were performed using Pierce EZ-Detect activation kits according to the manufacturer's instructions utilizing GST-RAF-1-RBD and GST-RalGDS-RBD for RAS and RAP-1 respectively. Briefly, 400 μg total protein from each extract was combined with recombinant protein and glutathione resin and incubated at 4° C. for one hour with gentle shaking. The resin was then washed to remove unbound protein and the activated RAS and RAP-1 proteins were removed by boiling in the presence of SDS-PAGE loading dye containing reducing agent. RAS and RAP-1 western blots were performed to visualize the proteins using antibodies supplied with the kit. Densitometry of the X-ray films was done by scanning and computer analysis.

JAK2 = assay: Custom AntibodyArray, TRiPS cells: JAK2; conditions: 15 μg/ml, 30 minutes
Experimental: as §1, §2

TCR-positive cells = assay: Annexin staining of TCR-positive PBL, flow cytometry (cell death)
Experimental: After this incubation, PHA was added to give a final concentration of 5 μg/ml, and the cells were incubated for an additional 72 hours at 37° C., 5% CO2. All cultures were performed in triplicate. Cells were then removed by centrifugation at 1000 rpm for 10 minutes.
The cells were further analyzed by flow cytometry. Annexin was used to determine populations of dead or dying cells. Anti-CD69 antibody was used to establish the level of cellular activation. Antibody to T-cell receptor αβ (TCR) was also used. Recombinant Annexin 5 (PE and FITC conjugates) and the antibodies were all purchase from Caltag (Burlingham, Calif.) and used following the manufacturer's recommendations.

IL-4 = assay: Custom AntibodyArray, TRiPS cells: IL-4; conditions: 15 μg/ml, 30 minutes
Experimental: as §1, §2

STAT2 = assay: Custom AntibodyArray, TRiPS cells: STAT2; conditions: 15 μg/ml, 30 minutes
Experimental: as §1, §2

RAP-1 = RAP-1 activation pulldown assay in TRiPS cells; conditions: CD3/CD28 beads + 15 μg/ml
Experimental: as §3, §4

NFκB = assay: Activated NFκB in TNFα- or VEGF-treated HIAECs, TransAM assay
Experimental: Then, the amount of NFκB was determined using a TransAM™ NFκB p65/NFκB p50 Transcription Factor Assay Kit and a Nuclear Extract Kit from Active Motif North America, Carlsbad, Calif., according to the manufacturer's instructions. Briefly, a nuclear extract of the cells was prepared using the Nuclear Extract Kit. Then, the nuclear extract was added to the wells of the 96-well plate of the TransAM™ kit. Oligonucleotide containing an NFκB consensus binding site was immobilized in the wells, and the activated NFκB contained in the nuclear extract was bound to the oligonucleotide. Then, an antibody directed against the NFκB p65 or p50 subunit was added, and the NFκB complex bound to the oligonucleotide was detected. A secondary antibody conjugated to horseradish peroxidase (HRP) was next added to provide a colorimetric readout that was quantified by spectrophotometry (measurement at 450 nm).
Passage 8 (human iliac artery endothelial cells (HIAECs) (obtained from ATCC; catalog no. CC-2545) were grown to confluence in 25 cm^2 flasks in EGM-2 medium. Eighteen hours prior to the experiment, the medium was replaced with EGM-2 medium containing 0.1% FCS plus heparin, GA1000 (gentamycin) and bovine pituitary extract (all from Cambrex) to place the cells in a resting state. To perform the experiment the medium was aspirated from the flasks, and the following additives were added to the flasks in fresh medium (total volume of 5 ml/flask): 15 μg/ml of the compound of formula II (Cpd II) or 10 μM LY 294002. The flasks were incubated 2 hours at 37° C., 5% CO2 After this incubation, VEGF or TNFα was added to give a final concentration 10 ng/ml, and the flasks were incubated for an additional 30 minutes. Then, the amount of NFκB was determined using a TransAM™ NFκB p65/NFκB p50 Transcription Factor Assay Kit and a Nuclear Extract Kit from Active Motif North America, Carlsbad, Calif., as described in Example 9.

Compound: COC(=O)C(c1ccc(-c2ccccc2)cc1)C1CCCCN1 (stereo not shown) [Cpd II]
- Effect of Cpd II on the protein in CD3/CD28 stimulated TRiPS cells (RAP2): Activated
- IL-8 production by the TRiPS cell line (IL-8): no effect on IL-8 production
- Effect of Cpd II on the protein in CD3/CD28 stimulated TRiPS cells (MEKK1): Decreased level back to basal levels (Nil control)
- inhibition of RAS protein (in words) (RAS): very strong inhibition of RAS protein
- Integrated Optical Density for RAS assay (RAS; no treatment 66.83, beads only 245.91): 84.98
- Effect of Cpd II on the protein in CD3/CD28 stimulated TRiPS cells (JAK2): Activated
- Annexin staining of TCR-positive cells (TCR-positive cells; 15 μg/ml, no PHA, background 7.3%): 23%
- Annexin staining of TCR-positive cells (TCR-positive cells; 50 μg/ml, no PHA, background 7.3%): 45%
- Annexin staining of TCR-positive cells (TCR-positive cells; PHA 5 μg/ml plus 15 μg/ml, PHA alone 67%): 62%
- Annexin staining of TCR-positive cells (TCR-positive cells; PHA 5 μg/ml plus 50 μg/ml, PHA alone 67%): 87%
- Effect of Cpd II on the protein in CD3/CD28 stimulated TRiPS cells (IL-4): Decreased level back to basal levels (Nil control)
- Effect of Cpd II on the protein in CD3/CD28 stimulated TRiPS cells (STAT2): No effect
- inhibition of RAP-1 (in words) (RAP-1): appeared to inhibit RAP-1
- Integrated Optical Density for RAP-1 assay (RAP-1; no treatment 259.27, beads only 213.66): 87.26
- Mean OD 450 nm (NFκB) (NFκB; TNFα 10 ng/ml + 15 μg/ml, control 0.174, TNFα only 0.881): 0.302 ± 0.003
- Mean OD 450 nm (NFκB) (NFκB; VEGF 10 ng/ml + 15 μg/ml, control 0.174, VEGF only 0.220): 0.066 + 0.005
